Test results published in patent publication US6855730B2, “3-methylidenyl-2-indolinone modulators of protein kinase” (Sugen, Inc., priority 1998, dated 2005).
Where two headings read alike, the source gives them in different places.

Experiments:
EGFR = EGFR (Homo sapiens, UniProt P00533); test: Biochemical EGFR assay (ELISA, A431 cell lysate); set-up: A431 cell lysate (Screening Lab, SUGEN, Inc.); host or cells: A431; settings: read-out: bio EGFr IC50
How it was run: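 EGFR captured from A431 cell lysate onto anti-EGFR-coated plates, then incubated with test compound for 30 min at room temperature. Tyrosine phosphorylation with ATP/MnCl2 was stopped with EDTA after 5 min and detected by anti-phosphotyrosine ELISA with peroxidase/ABTS read-out.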

[1] = system: HUV-EC-C cells (aFGF, FGF-R); test: cells; assay type: cell-based; settings: Homo sapiens, HUVEC, read-out: HUVEC aFGF IC50
pyk2 = pyk2 (Homo sapiens, UniProt Q14289); test: bio pyk2 assay; assay type: biochemical
[2] = molecular target: T1, 3T3 cell line genetically engineered to express human PDGF-R (Homo sapiens, UniProt P09619); test: PDGF-induced BrdU incorporation assay; assay type: cell-based
T1 construct: expressed in transfected cells; host or cells: 3T3

src protein kinase = molecular target: T2, src protein kinase (Gallus gallus, UniProt P00523); test: Biochemical SRC assay (phosphorylation of biotinylated peptide); settings: read-out: bio src IC50
T2 construct: host or cells: Schizosaccharomyces pombe SP200

[3] = read-out: PDGF-Induced BrdU Incorp. IC50

Sequence of pyk2 (Q14289 whole entry, species assumed): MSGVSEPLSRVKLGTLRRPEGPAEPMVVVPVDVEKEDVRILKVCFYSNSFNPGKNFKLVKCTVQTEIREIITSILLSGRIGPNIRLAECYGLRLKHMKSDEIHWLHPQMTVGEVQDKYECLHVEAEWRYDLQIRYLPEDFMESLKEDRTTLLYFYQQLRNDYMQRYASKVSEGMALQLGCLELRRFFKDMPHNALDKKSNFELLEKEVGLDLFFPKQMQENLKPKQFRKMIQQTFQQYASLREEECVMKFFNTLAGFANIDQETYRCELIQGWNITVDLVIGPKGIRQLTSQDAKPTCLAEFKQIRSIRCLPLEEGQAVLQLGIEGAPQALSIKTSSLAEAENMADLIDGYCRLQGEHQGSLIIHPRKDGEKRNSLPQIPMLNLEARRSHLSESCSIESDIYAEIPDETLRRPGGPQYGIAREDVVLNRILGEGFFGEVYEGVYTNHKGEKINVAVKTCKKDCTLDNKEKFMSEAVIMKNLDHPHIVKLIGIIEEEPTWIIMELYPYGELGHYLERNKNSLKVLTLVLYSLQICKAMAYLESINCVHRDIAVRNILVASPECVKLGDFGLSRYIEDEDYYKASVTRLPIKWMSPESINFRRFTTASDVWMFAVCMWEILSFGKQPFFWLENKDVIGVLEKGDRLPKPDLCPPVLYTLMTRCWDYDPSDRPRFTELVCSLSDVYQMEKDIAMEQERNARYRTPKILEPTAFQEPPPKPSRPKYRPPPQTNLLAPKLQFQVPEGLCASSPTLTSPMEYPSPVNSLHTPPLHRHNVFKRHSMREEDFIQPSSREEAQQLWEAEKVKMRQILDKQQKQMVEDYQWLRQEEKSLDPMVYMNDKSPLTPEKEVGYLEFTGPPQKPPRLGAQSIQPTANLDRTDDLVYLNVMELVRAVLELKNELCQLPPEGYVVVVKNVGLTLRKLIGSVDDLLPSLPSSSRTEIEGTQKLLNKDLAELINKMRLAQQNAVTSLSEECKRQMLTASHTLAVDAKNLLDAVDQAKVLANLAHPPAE
Sequence of EGFR (P00533 25-1210): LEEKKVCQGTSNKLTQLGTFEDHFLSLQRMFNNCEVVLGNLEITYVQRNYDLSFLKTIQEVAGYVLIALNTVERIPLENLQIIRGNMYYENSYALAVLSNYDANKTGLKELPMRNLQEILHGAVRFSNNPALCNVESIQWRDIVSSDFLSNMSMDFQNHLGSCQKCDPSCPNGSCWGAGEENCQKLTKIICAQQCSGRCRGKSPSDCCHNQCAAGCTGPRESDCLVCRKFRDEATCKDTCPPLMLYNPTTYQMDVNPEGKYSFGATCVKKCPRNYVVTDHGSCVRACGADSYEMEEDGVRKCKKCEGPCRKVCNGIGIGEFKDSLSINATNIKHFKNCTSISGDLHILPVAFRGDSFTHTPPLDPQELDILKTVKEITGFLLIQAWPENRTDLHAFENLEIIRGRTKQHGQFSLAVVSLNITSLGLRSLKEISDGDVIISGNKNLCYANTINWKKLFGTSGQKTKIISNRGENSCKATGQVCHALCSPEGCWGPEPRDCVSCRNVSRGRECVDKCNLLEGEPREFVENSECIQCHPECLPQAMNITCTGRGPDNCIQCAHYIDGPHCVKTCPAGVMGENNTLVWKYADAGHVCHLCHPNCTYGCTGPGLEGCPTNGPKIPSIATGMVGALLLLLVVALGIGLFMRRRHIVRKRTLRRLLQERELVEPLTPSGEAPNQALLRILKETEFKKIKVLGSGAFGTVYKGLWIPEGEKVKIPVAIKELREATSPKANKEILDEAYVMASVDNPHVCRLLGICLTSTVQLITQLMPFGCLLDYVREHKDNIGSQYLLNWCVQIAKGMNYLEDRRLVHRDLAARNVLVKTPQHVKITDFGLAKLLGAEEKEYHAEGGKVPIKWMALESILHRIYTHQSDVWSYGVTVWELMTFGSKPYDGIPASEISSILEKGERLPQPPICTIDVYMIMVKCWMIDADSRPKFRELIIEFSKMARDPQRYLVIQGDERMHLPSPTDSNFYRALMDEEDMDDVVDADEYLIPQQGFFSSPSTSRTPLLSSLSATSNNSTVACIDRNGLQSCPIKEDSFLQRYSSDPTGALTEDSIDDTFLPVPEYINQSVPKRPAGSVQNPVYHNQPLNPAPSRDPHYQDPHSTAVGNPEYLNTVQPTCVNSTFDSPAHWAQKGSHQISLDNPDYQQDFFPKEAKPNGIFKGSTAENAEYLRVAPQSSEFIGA

Row | IC50 (EGFR) [µM] | IC50 ([1]; aFGF-stimulated) [µM] | IC50 (pyk2) [µM] | IC50 [2, 3] [µM] | IC50 (src protein kinase) [µM] | Compound | IC50 [1] [µM] | IC50 [2] [µM]
1 | > 100 | 0.16 | 6.61 | 3.9 |  | CNC(=O)CCc1c(/C=C2\C(=O)Nc3ccccc32)[nH]c2c1CCCC2 [Example 201, N-Methyl-3-[2-(2-oxo-1,2-dihydroindol-3-ylidenemethyl)-4,5,6,7-tetrahydro-1H-indol-3-yl]-propionamide] |  | 
2 | > 100 |  | 23.9 |  | 4.75 | Cc1c[nH]c(/C=C2\C(=O)Nc3ccc(Cl)cc32)c1CCC(=O)O [Example 216, 3-[2-(5-Chloro-2-oxo-1,2-dihydroindol-3-ylidenemethyl)-4-methyl-1H-pyrrol-3-yl]-propionic acid] |  | 
3 | > 100 |  |  | 5.2 | > 50 | O=C(CCc1c(/C=C2\C(=O)Nc3ccccc32)[nH]c2c1CCCC2)NCCN1CCOCC1 [Example 202, N-(2-Morpholin-4-ylethyl)-3-[2-(2-oxo-1,2-dihydroindol-3-ylidenemethyl)-4,5,6,7-tetrahydro-1H-indol-3-yl]-propionamide] |  | 
4 | > 100 | 202 | 12 | 4.9 |  | CN(C)C(=O)CCc1c(/C=C2\C(=O)Nc3ccccc32)[nH]c2c1CCCC2 [Example 197, N,N-Dimethyl-3-[2-(2-oxo-1,2-dihydroindol-3-ylidenemethyl)-4,5,6,7-tetrahydro-1H-indol-3-yl]-propionamide] |  | 
5 | 36.5 |  | 10.7 | 3.7 | 0.26 | O=C(O)CCc1c(/C=C2\C(=O)Nc3cc(Cl)ccc32)[nH]c2c1CCCC2 [Example 195, 3-[2-(6-Chloro-2-oxo-1,2-dihydroindol-3-ylidenemethyl)-4,5,6,7-tetrahydro-1H-indol-3-yl]-propionic acid] |  | 
6 | 13.3 |  |  |  | 1.06 | COc1cccc(-c2ccc3c(c2)NC(=O)/C3=C\c2[nH]cc(C)c2CCC(=O)O)c1 [Example 223, 3-{2-[6-(3-Methoxyphenyl)-2-oxo-1,2-dihydro-indol-3-ylidenemethyl]-4-methyl-1H-pyrrol-3-yl}-propionic acid] |  | 
7 | > 100 | 0.1 | 2.83 | 3.5 |  | NC(=O)CCc1c(/C=C2\C(=O)Nc3ccccc32)[nH]c2c1CCCC2 [Example 199, 3-[2-(2-Oxo-1,2-dihydroindol-3-ylidenemethyl)-4,5,6,7-tetrahydro-1H-indol-3-yl]-propionamide] |  | 
8 |  |  | 4.09 | 14.2 | 20.6 | Cc1ccc2c(c1)/C(=C/c1[nH]c3c(c1CCC(=O)O)CCCC3)C(=O)N2 [Example 194, 3-[2-(5-Methyl-2-oxo-1,2-dihydroindol-3-ylidenemethyl)-4,5,6,7-tetrahydro-1H-indol-3-yl]-propionic acid] |  | 
9 | > 100 | 0.25 | 68.5 | 1.1 | 12 | O=C(O)CCc1c(/C=C2\C(=O)Nc3ccc(Cl)cc32)[nH]c2c1CCCC2 [Example 191, 3-[2-(5-Chloro-2-oxo-1,2-dihydroindol-3-ylidenemethyl)-4,5,6,7-tetrahydro-1H-indol-3-yl]-propionic acid] |  | 
10 |  | 1.6 | 2.37 | 3 | 11.3 | COc1ccc2c(c1)NC(=O)/C2=C\c1[nH]c2c(c1CCC(=O)O)CCCC2 [Example 196, 3-[2-(6-Methoxy-2-oxo-1,2-dihydroindol-3-ylidenemethyl)-4,5,6,7-tetrahydro-1H-indol-3-yl]-propionic acid] |  | 
11 | > 100 |  | 5.62 | 8.6 |  | O=C1Nc2ccccc2/C1=C/c1[nH]c2c(c1CCC(=O)N1CCOCC1)CCCC2 [Example 200, 3-[3-(3-Morpholin-4-yl-3-oxopropyl)-4,5,6,7-tetrahydro-1H-indol-2-ylmethylene]-1,3-dihydroindol-2-one] |  | 
12 | > 100 |  |  | > 50 | 5.77 | COc1ccc2c(c1)/C(=C/c1[nH]cc(C)c1CCC(=O)O)C(=O)N2 [Example 222, 3-[2-(5-Methoxy-2-oxo-1,2-dihydroindol-3-ylidenemethyl)-4-methyl-1H-pyrrol-3-yl]-propionic acid] |  | 
13 | 7.09 |  |  |  | 4.44 | COc1cccc(-c2ccc3c(c2)NC(=O)/C3=C\c2[nH]c3c(c2CCC(=O)O)CCCC3)c1 [Example 204, 3-{2-[6-(3-Methoxyphenyl)-2-oxo-1,2-dihydro-indol-3-ylidenemethyl]-4,5,6,7-tetrahydro-1H-indol-3-yl}-propionic acid] |  | 
14 | > 100 |  |  |  | > 100 | O=C(O)CCc1ccccc1/C=C1/C(=O)Nc2ccccc21 [Example 214, 3-[2-(2-Oxo-1,2-dihydroindol-3-ylidenemethyl)-phenyl]-propionic acid] |  | 
15 | 90.7 |  | 17.3 | 13.5 | 48.6 | Cc1cccc2c1/C(=C/c1[nH]c3c(c1CCC(=O)O)CCCC3)C(=O)N2 [Example 193, 3-[2-(4-Methyl-2-oxo-1,2-dihydroindol-3-ylidenemethyl)-4,5,6,7-tetrahydro-1H-indol-3-yl]-propionic acid] |  | 
16 | > 100 |  | 1.5 | 4.2 | 2.34 | CN(C)CCCc1c(/C=C2\C(=O)Nc3ccccc32)[nH]c2c1CCCC2 [Example 198, 3-[3-(3-Dimethylaminopropyl)-4,5,6,7-tetrahydro-1H-indol-2-ylmethylene]-1,3-dihydroindol-2-one] |  | 
17 |  |  | 4.87 | 1.4 | 10.5 | O=C(O)CCc1c(/C=C2\C(=O)Nc3ccc(Br)cc32)[nH]c2c1CCCC2 [Example 192, 3-[2-(5-Bromo-2-oxo-1,2-dihydroindol-3-ylidenemethyl)-4,5,6,7-tetrahydro-1H-indol-3yl]-propionic acid] |  | 
18 | > 100 |  | 0.13 |  | 1.84 | CC(C)NS(=O)(=O)c1ccc2c(c1)C(=Cc1[nH]c3c(c1CCC(=O)O)CCCC3)C(=O)N2 [Example 208, 3-[2-(5-Isopropylaminosulfonyl-2-oxo-1,2-dihydroindol-3-ylidenemethyl)-4,5,6,7-tetrahydro-1H-indol-3-yl]-propionic acid] |  | 
19 |  |  | < 0.78 | 2.9 | 0.11 | O=C(O)CCc1c(/C=C2\C(=O)Nc3ccccc32)[nH]c2c1CCCC2 [Example 190, 3-[2-(2-Oxo-1,2-dihydro-indol-3-ylidenemethyl)-4,5,6,7-tetrahydro-1H-indol-3-yl]-propionic acid] |  | 
20 | > 100 |  | 2.89 | 8.7 | 3.68 | COc1ccc2c(c1)NC(=O)/C2=C\c1[nH]cc(C)c1CCC(=O)O [Example 217, 3-[2-(6-Methoxy-2-oxo-1,2-dihydroindol-3-ylidenemethyl)-4-methyl-1H-pyrrol-3-yl]-propionic acid] |  | 

Row | Compound | IC50 (EGFR) [µM] | IC50 ([1]; aFGF-stimulated) [µM] | IC50 (pyk2) [µM] | IC50 [2, 3] [µM] | IC50 (src protein kinase) [µM] | IC50 [1] [µM] | IC50 [2] [µM]
21 | Cc1c[nH]c(/C=C2\C(=O)Nc3ccccc32)c1CCC(=O)O [Example 215, 3-[4-Methyl-2-(2-oxo-1,2-dihydroindol-3-ylidenemethyl)-1H-pyrrol-3-yl]-propionic acid] | > 100 |  | 6.9 |  | 5.59 | 1.1 | 20
22 | Cc1c[nH]c(/C=C2\C(=O)Nc3cccc(C)c32)c1CCC(=O)O [Example 218, 3-[2-(4-Methyl-2-oxo-1,2-dihydroindol-3-ylidenemethyl)-4-methyl-1H-pyrrol-3-yl]-propionic acid] |  |  | 32.3 | 24.8 |  |  | 
23 | COc1ccc(-c2ccc3c(c2)NC(=O)/C3=C\c2[nH]c3c(c2CCC(=O)O)CCCC3)cc1 [Example 205, 3-{2-[6-(4-Methoxyphenyl)-2-oxo-1,2-dihydro-indol-3-ylidenemethyl]-4,5,6,7-tetrahydro-1H-indol-3-yl}-propionic acid] | 16.2 |  |  |  | 1.34 |  | 
24 | Cc1c[nH]c(/C=C2\C(=O)Nc3ccc(Br)cc32)c1CCC(=O)O [Example 220, 3-[2-(5-Bromo-2-oxo-1,2-dihydroindol-3-ylidenemethyl)-4-methyl-1H-pyrrol-3-yl]-propionic acid] |  |  | 1.89 | 8.5 | 6.48 |  | 
25 | Cc1c[nH]c(C=C2C(=O)Nc3cc(Cl)ccc32)c1CCC(=O)O [Example 219, 3-[2-(6-Chloro-2-oxo-1,2-dihydroindol-3-ylidenemethyl)-4-methyl-1H-pyrrol-3-yl]-propionic acid] | 98.1 |  | 4.15 | 7.9 | 0.08 |  | 
